“Also recorded” adds a separate entry of the source. Structures can show the parent of a compound that is named as a salt. Where two headings read alike, the source gives them in different places.
Tests used:
[1] = Acute toxicity (LD50), i.p.; type: in vivo, mice; conditions: mouse, in vivo, ip
[2] = test system: mice; test: Acute toxicity (LD50), i.p.; type: in vivo; conditions: for toxicity (in words): mouse, in vivo
[3] = test system: mice; test: Radioprotective activity: survival at the 30th day after irradiation; type: in vivo; conditions: for radioprotective activity (in words): mouse, in vivo; for responders at 600 mg/kg: 600 mg/kg i.p.
Method: This study of radioprotective activity was carried out according to a technique described by M. Fatome at al., Eur. J. Med. Chem. 1977, 12, (1), 93. […] This dose is equal to 950 Rad.
More complete studies are recorded in Table II.

[4] = test system: mice; conditions: cited from earlier work
[5] = test system: EMT 6 tumours; test: Gain factor (bone marrow FRD/tumour FRD) on EMT 6 tumours; type: in vivo; conditions: 5×10^-1 survival level
[6] = test system: bone marrow; test: FRD on bone marrow; conditions: in vivo
[7] = test system: normal tissues / tumours; test: Selectivity of protection: normal tissues versus tumours; conditions: EMT6 and HT19 tumours, except if necrotised
[8] = Chemical stability; type: physicochemical; conditions: I 102 compared with WR 2721
[9] = test system: normal tissues / tumours; conditions: literature knowledge; cited from earlier work
[10] = cited from earlier work

For `CC(=O)OC(CNC(=O)CN)CSC(C)=O` (stereo not drawn) [Example 32, TRIFLUOROACETATE], the LD50 [1] was over 1500 mg/kg, the LD50 ([1]; Table I) was 1500 mg/kg and the LD50 ([1]; Table II) was 1500 mg/kg. The “toxicity (in words)” value [2] was “low toxicity”, the “survival at 30 days” value ([3]; 250 mg/kg, 900 Rad) was 70% and the “survival at 30 days” value ([3]; 1,000 mg/kg, 1,100 Rad) was 80%. The responders at 1000 mg/kg ([3]; Mus musculus, light or radiation study, ip, 720 h, Table I, 1,000 mg/kg i.p., 15' before irradiation at 900 or 950 Rad, read-out: % survival at the 30th day) was 100%, the responders at 1000 mg/kg ([3]; Mus musculus, light or radiation study, ip, 720 h, Table II, 1,000 mg/kg i.p., 15' before irradiation, 900 Rad, read-out: % survival at 30 days) was 100% and the responders at 250 mg/kg ([3]; Mus musculus, light or radiation study, ip, 720 h, Table II, dose not printed (250 mg/kg in text), 15' before irradiation, 900 Rad, read-out: % survival at 30 days) was 70%. It also gave a responders at 1000 mg/kg ([3]; Mus musculus, light or radiation study, ip, 720 h, Table II, dose not printed (1,000 mg/kg in text), 15' before irradiation, 1,100 Rad, read-out: % survival at 30 days) of 80%.

For `CC(=O)NCCSC(=O)CN.O=C(O)C(F)(F)F` [Example 34], the LD50 ([1]; Table II) was 1000 mg/kg, the LD50 ([2]; Table I) was 1,000 mg/kg and the “radioprotective activity (in words)” value [3] was “slight radioprotective action”.

For `C[C@H](N)C(=O)NCCSSCCNC(=O)[C@H](C)N.O=C(O)C(F)(F)F.O=C(O)C(F)(F)F` [Example 45, N,N'-[…] DI(TRIFLUOROACETATE)], the LD50 ([1]; Table I) was 1200 mg/kg, the LD50 ([1]; Table II) was 1200 mg/kg and the “toxicity (in words)” value [2] was “low toxicity”. The responders at 600 mg/kg ([3]; Mus musculus, ip, 720 h, read-out: % survival at 30 days, Table II, 4th entry, time and Rad not given) was 50%, the responders at 150 mg/kg ([3]; Mus musculus, light or radiation study, ip, 720 h, read-out: % survival at 30 days, Table II, 150 mg/kg i.p., 15' before irradiation, 900 Rad) was 20% and the responders at 600 mg/kg ([3]; Mus musculus, light or radiation study, ip, 720 h, read-out: % survival at 30 days, Table II, 2 (hours, cut off) before irradiation, 900 Rad) was 50%. For the same molecule, the responders at 600 mg/kg ([3]; Mus musculus, light or radiation study, ip, 720 h, read-out: % survival at 30 days, Table II, 15' before irradiation, 900 Rad) was 100%, the responders at 600 mg/kg ([3]; Mus musculus, light or radiation study, ip, 720 h, read-out: % survival at the 30th day, Table I, 15' before irradiation at 900 or 950 Rad) was 100% and the “radioprotective activity (in words)” value [3] was “good radioprotection”.

In the case of `CC(C)(N)CSS(=O)(=O)O` [H2 N--(C(CH3)2 --CH2 --S--SO3 H], the “protection (in words)” value ([4]; 600 mg/kg, J. R. Piper et al., J. Med. Chem. 1966) is given as “good protection”.

For `CC(=O)SCCNC(=O)CN` [I 102, N-glycyl-S-acetylcysteamine], the LD50 [1] was over 1500 mg/kg, the “gain factor (bone marrow FRD/tumour FRD)” value [5] was 1.2 and the “FRD on bone marrow” value [6] was 1.4. For the same molecule, the “protection of tumours (in words)” value [7] was “does not protect tumours (or protects them to only a small extent)”.

With `NCCCNCCSP(=O)(O)O` [WR 2721] the LD50 [2] was 950 mg/kg, the “gain factor (bone marrow FRD/tumour FRD)” value [5] was 1.2 and the “chemical stability (in words)” value [8] was “unstable; also recorded: not very stable”. For the same molecule, the “FRD on bone marrow” value [6] was 2.7, the “selectivity of protection (in words)” value [9] was “protecting normal tissues against radiation-induced damage, while allowing solid tumors to bear alone the effect of the radiation; also recorded: concentrates selectively in healthy cells and not in cancer cells; also recorded: concentrating selectively in normal tissues (and not in cancer cells); also recorded: selectively protects normal tissues against radiation-induced damage” and the “solubility in water (in words)” value [10] was “high solubility in water”.

For `NCC(O)CSP(=O)(O)O` (stereo not drawn) [WR 77913], the “survival at 30 days” value ([4]; mice, 400 mg/kg (i.p.) 30 minutes before irradiation of 950, 970 Rad) is listed as 100%.

For `NCCS` [cysteamine, β-mercaptoethylamine], the “selectivity of protection (in words)” value [9] is listed as “non-selective protection of the cells”.

In the case of `N[C@@H](CS)C(=O)O` [cysteine], the “selectivity of protection (in words)” value [9] is listed as “non-selective protection of the cells”.

Source: patent US4816482A, “Radioprotective agents having an amino-thioalkyl structure” (priority 1983, dated 1989)
